For this assay, the system named is RintRC_3892. The following applies: read-out: K0.5; 20 mM TES-KOH pH 8, 30-33 mM NaCl (Na+-dependent), 30°C, light; labelled compound; n = 5; actual K0.5 might be somewhat higher because of non-labelled bicarbonate.

Drawing on PMC12596568, “Retention of a SulP-family bicarbonate transporter in a periplasmic N2-fixing cyanobacterial endosymbiont of an open ocean diatom” (The ISME Journal, 2025), this text covers Km for one compound.

For `O=C(O)O` [bicarbonate], the Km was around 464 µM.
